{"source": "patent US5292737A", "about": "“N,N'-bis(sulfonamido)-2-amino-4-iminonaphthalen-1-ones and N,N'-bis(amido)-2-amino-4-iminonaphthalen-1-ones” (Sphinx Pharmaceuticals Corporation, priority 1992, dated 1994)", "key": {"PKC isoenzyme γ": {"target": "T1, PKC isoenzyme γ (Homo sapiens, UniProt P05129)", "T1 construct": "made in house; host or cells: baculovirus-insect cell expression system", "assay": "Protein kinase C inhibition assay, PKC isoenzyme γ", "format": "biochemical", "conditions": "read-out: IC50 PKC γ", "outline": "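Radiometric filter assay: enzyme from baculovirus-infected insect cells, H1 or Mbp acceptor, PS/DAG vesicles at suboptimal lipid levels, physiologic-like buffer. Test compound 1–150 μM (four levels, DMSO). 10 min reaction, 25% TCA + BSA stop, scintillation count; IC50 = 50% inhibition of control activity.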"}, "human neutrophils": {"test_system": "human neutrophils", "assay": "Neutrophil Superoxide Anion (O2) Release Assay, PMA-stimulated", "format": "cell-based", "conditions": "Homo sapiens, Neutrophil, PMA-stimulated human neutrophils; read-out: Neutrophil Superoxide Release IC50"}}, "data": [{"compound": "O=C1C(Nc2ccc(S(=O)(=O)Nc3cnc4ccccc4n3)cc2)=CC(=Nc2ccc(S(=O)(=O)Nc3cnc4ccccc4n3)cc2)c2ccccc21", "note": "[Compound 3m]", "values": [{"measurement": "IC50", "setting": "PKC isoenzyme γ", "result": 14, "unit": "µM"}, {"measurement": "IC50", "setting": "human neutrophils", "result": 1.31, "unit": "µM"}]}]}
